# ChEMBL document CHEMBL1145401, “Design and synthesis of classical and nonclassical 6-arylthio-2,4-diamino-5-ethylpyrrolo[2,3-d]pyrimidines as antifolates” (J Med Chem, 2007)
# Tests used:
# [1] = target: T1, Dihydrofolate reductase (Mycobacterium avium, UniProt O30463)
# T1 sequence (O30463 whole entry): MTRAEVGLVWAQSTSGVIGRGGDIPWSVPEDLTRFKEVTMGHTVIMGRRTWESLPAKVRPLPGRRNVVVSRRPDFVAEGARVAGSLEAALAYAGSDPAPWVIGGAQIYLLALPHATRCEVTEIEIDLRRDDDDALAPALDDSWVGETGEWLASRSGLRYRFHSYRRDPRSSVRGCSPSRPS
# Description: Inhibition of Mycobacterium avium DHFR
# [2] = target: T2, Dihydrofolate reductase (Homo sapiens, UniProt P00374); assay: Inhibition of human DHFR relative to control; settings: concentration not given here
# [3] = Selectivity ratio of IC50 for rat liver DHFR to IC50 for Pneumocystis carinii DHFR
# [4] = Selectivity ratio of IC50 for rat liver DHFR to IC50 for Mycobacterium avium DHFR
# [5] = target: T2, Dihydrofolate reductase
# [6] = target: T3, Dihydrofolate reductase (Pneumocystis carinii, UniProt P16184)
# T3 sequence (P16184 whole entry): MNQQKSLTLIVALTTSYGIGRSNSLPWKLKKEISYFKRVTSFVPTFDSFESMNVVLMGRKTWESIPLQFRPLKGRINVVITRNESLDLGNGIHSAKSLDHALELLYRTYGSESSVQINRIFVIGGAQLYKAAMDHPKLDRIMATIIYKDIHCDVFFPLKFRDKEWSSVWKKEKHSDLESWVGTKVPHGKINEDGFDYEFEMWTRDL
# Description: Inhibition of Pneumocystis carinii DHFR
# [7] = target: T4, Bifunctional dihydrofolate reductase-thymidylate synthase (Toxoplasma gondii, UniProt Q07422)
# T4 sequence (Q07422 whole entry): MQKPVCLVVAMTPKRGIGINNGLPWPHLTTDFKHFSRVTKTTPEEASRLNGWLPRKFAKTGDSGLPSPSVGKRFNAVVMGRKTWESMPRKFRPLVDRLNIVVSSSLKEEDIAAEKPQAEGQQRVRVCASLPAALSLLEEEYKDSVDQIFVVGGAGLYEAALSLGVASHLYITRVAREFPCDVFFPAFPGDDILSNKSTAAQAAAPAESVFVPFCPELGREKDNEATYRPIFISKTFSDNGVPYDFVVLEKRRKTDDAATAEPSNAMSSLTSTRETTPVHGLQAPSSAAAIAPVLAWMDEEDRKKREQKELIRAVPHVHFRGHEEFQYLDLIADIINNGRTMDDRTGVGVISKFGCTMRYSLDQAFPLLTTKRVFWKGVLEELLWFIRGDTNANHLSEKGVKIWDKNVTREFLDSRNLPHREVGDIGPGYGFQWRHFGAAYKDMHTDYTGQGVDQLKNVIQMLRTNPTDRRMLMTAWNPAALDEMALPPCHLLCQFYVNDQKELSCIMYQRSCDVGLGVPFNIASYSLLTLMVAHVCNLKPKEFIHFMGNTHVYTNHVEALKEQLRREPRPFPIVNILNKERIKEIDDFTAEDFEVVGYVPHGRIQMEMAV
# Description: Inhibition of Toxoplasma gondii DHFR
# [8] = target: T5, Dihydrofolate reductase (Rattus norvegicus, UniProt Q920D2)
# T5 sequence (Q920D2 whole entry): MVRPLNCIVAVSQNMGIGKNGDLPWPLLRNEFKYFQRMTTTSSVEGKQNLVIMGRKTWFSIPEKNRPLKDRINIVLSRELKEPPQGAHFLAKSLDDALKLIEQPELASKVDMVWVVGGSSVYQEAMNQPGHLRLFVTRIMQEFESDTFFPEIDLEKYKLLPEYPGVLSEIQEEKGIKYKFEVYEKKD
# Description: Inhibition of rat liver DHFR
# [9] = target: Dihydrofolate reductase (Pneumocystis carinii) (UniProt P16184); settings: 20 uM
# Description: Inhibition of Pneumocystis carinii DHFR at 20 uM
# [10] = system: CCRF-CEM; assay: Growth inhibition of human CCRF-CEM cells
# [11] = system: CCRF-CEM; assay: Effect on growth of human CCRF-CEM cells at 5000 nM in presence of 10 uM deoxycytidine, 5 uM thymidine relative to control; type: functional
# [12] = system: CCRF-CEM; assay: Effect on growth of human CCRF-CEM cells at 5000 nM in presence of 10 uM deoxycytidine, 10 uM hypoxanthine relative to control; type: functional
# [13] = system: CCRF-CEM; assay: Effect on growth of human CCRF-CEM cells at 5000 nM in presence of 10 uM deoxycytidine, 5 uM thymidine and 10 uM hypoxanthine relative to control; type: functional
# [14] = system: CCRF-CEM; assay: Cytotoxicity against CCRF-CEM cells; type: functional; settings: Homo sapiens
# [15] = system: K562; assay: Cytotoxicity against K562 cells; type: functional; settings: Homo sapiens
# [16] = system: MOLT-4; assay: Cytotoxicity against MOLT4 cells; type: functional; settings: Homo sapiens
# [17] = system: SR; assay: Cytotoxicity against SR cells; type: functional; settings: Homo sapiens
# [18] = system: NCI-H460; assay: Cytotoxicity against NCI-H460 cells; type: functional; settings: Homo sapiens
# [19] = system: HCT-116; assay: Cytotoxicity against HCT116 cells; type: functional; settings: Homo sapiens
# [20] = system: HT-29; assay: Cytotoxicity against HT29 cells; type: functional; settings: Homo sapiens
# [21] = system: KM12; assay: Cytotoxicity against KM12 cells; type: functional; settings: Homo sapiens
# [22] = system: SW-620; assay: Cytotoxicity against SW620 cells; type: functional; settings: Homo sapiens
# [23] = system: SF-268; assay: Cytotoxicity against SF268 cells; type: functional; settings: Homo sapiens
# [24] = system: SF-295; assay: Cytotoxicity against SF295 cells; type: functional; settings: Homo sapiens
# [25] = system: SF-539; assay: Cytotoxicity against SF539 cells; type: functional; settings: Homo sapiens
# [26] = system: U-251; assay: Cytotoxicity against U251 cells; type: functional; settings: Homo sapiens
# [27] = system: LOX IMVI; assay: Cytotoxicity against LOX IMVI cells; type: functional; settings: Homo sapiens
# [28] = system: UACC-62; assay: Cytotoxicity against UACC62 cells; type: functional; settings: Homo sapiens
# [29] = system: OVCAR-8; assay: Cytotoxicity against OVCAR8 cells; type: functional; settings: Homo sapiens
# [30] = system: ACHN; assay: Cytotoxicity against ACHN cells; type: functional; settings: Homo sapiens
# [31] = system: CAKI-1; assay: Cytotoxicity against CAKI1 cells; type: functional; settings: Homo sapiens
# [32] = system: SN12C; assay: Cytotoxicity against SN12C cells; type: functional; settings: Homo sapiens
# [33] = system: UO-31; assay: Cytotoxicity against UO31 cells; type: functional; settings: Homo sapiens
# [34] = system: PC-3; assay: Cytotoxicity against PC3 cells; type: functional; settings: Homo sapiens
# [35] = system: DU-145; assay: Cytotoxicity against DU145 cells; type: functional; settings: Homo sapiens
# [36] = system: MCF7; assay: Cytotoxicity against MCF7 cells; type: functional; settings: Homo sapiens
# [37] = system: MDA-MB-435; assay: Cytotoxicity against MDA-MB-435 cells; type: functional; settings: Homo sapiens
# [38] = system: CCRF-CEM; assay: Effect on growth of human CCRF-CEM cells at 5000 nM in presence of 10 uM deoxycytidine relative to control; type: functional
# [39] = system: CCRF-CEM; assay: cells; settings: Homo sapiens
# [40] = system: CCRF-CEM; assay: cells; settings: Homo sapiens; remark: listed apart in the source
# [41] = system: CCRF-CEM; assay: cells; settings: Homo sapiens; remark: listed apart in the source
compound,measurement,setting,value
COc1ccc(Sc2[nH]c3nc(N)nc(N)c3c2C)cc1,IC50,[1],0.69 µM
CCc1c(Sc2ccc(Cl)cc2)[nH]c2nc(N)nc(N)c12,inhibition,[2],36%
same,Ratio IC50,[3],0.5
same,Ratio IC50,[4],7.8
same,IC50,[5],> 31 µM
same,IC50,[6],11.9 µM
same,IC50,[7],1.54 µM
same,IC50,[1],0.7 µM
same,IC50,[8],5.48 µM
CCc1c(Sc2c(C)cccc2C)[nH]c2nc(N)nc(N)c12,IC50,[6],30.2 µM
same,IC50,[7],7.1 µM
same,IC50,[1],18.4 µM
same,IC50,[8],10.1 µM
CCc1c(Sc2c(Cl)cccc2Cl)[nH]c2nc(N)nc(N)c12,inhibition,[2],30%
same,Ratio IC50,[3],0.2
same,Ratio IC50,[4],0.33
same,IC50,[5],> 28 µM
same,IC50,[6],20.6 µM
same,IC50,[7],3.8 µM
same,IC50,[1],12 µM
same,IC50,[8],4 µM
CCc1c(Sc2cc(OC)ccc2OC)[nH]c2nc(N)nc(N)c12,IC50,[5],5.8 µM
same,IC50,[7],0.12 µM
Cc1c(Sc2ccc(Cl)c(Cl)c2)[nH]c2nc(N)nc(N)c12,Ratio IC50,[3],9.1
same,Ratio IC50,[4],5.8
same,IC50,[7],20 µM
same,IC50,[1],19 µM
same,IC50,[8],110 µM
same,inhibition,[9],14%
CCc1c(Sc2ccc(C(=O)N[C@@H](CCC(=O)O)C(=O)O)cc2)[nH]c2nc(N)nc(N)c12,EC50,[10],0.068 µM
same,Activity,[11],15%
same,Activity,[12],12%
same,Activity,[13],74%
same,GI50,[14],0.017 µM
same,GI50,[15],0.012 µM
same,GI50,[16],0.48 µM
same,GI50,[17],< 0.01 µM
same,GI50,[18],0.18 µM
same,GI50,[19],0.023 µM
same,GI50,[20],0.098 µM
same,GI50,[21],0.056 µM
same,GI50,[22],0.026 µM
same,GI50,[23],0.43 µM
same,GI50,[24],0.66 µM
same,GI50,[25],0.24 µM
same,GI50,[26],0.53 µM
same,GI50,[27],0.044 µM
same,GI50,[28],0.88 µM
same,GI50,[29],0.74 µM
same,GI50,[30],0.44 µM
same,GI50,[31],0.17 µM
same,GI50,[32],0.6 µM
same,GI50,[33],0.3 µM
same,GI50,[34],0.4 µM
same,GI50,[35],0.37 µM
same,GI50,[36],0.17 µM
same,GI50,[37],0.66 µM
same,Activity,[38],12%
same,IC50,[5],0.066 µM
same,EC50,[39],5.7 µM
same,EC50,[40],6.7 µM
same,EC50,[41],0.2 µM
CCc1c(Sc2ccc(OC)cc2)[nH]c2nc(N)nc(N)c12,IC50,[5],2.9 µM
same,IC50,[6],53 µM
same,IC50,[7],4.62 µM
same,IC50,[1],3.07 µM
same,IC50,[8],31.8 µM
Cc1c(Sc2ccc3ccccc3c2)[nH]c2nc(N)nc(N)c12,Ratio IC50,[3],0.1
same,Ratio IC50,[4],6.5
same,IC50,[7],0.16 µM
same,IC50,[1],0.7 µM
CCc1c(Sc2cccc3cccnc23)[nH]c2nc(N)nc(N)c12,IC50,[5],1.4 µM
same,IC50,[6],9.58 µM
same,IC50,[1],0.11 µM
same,IC50,[8],3.55 µM
